Results as given in a melting point compilation (Tetko et al.; mined from patent text by program, amines drawn as free bases though some values may be those of a salt).

| melting point [°C] | Compound |
| --- | --- |
| 114 | NS(=O)(=O)c1ccc(-n2nc(C(F)(F)F)cc2-c2ccc(-c3cscn3)c(C(F)(F)F)c2)cn1 |
| 281 | O=C(CCCl)Nc1ccc2c(c1)C(=O)c1cc(NC(=O)CCCl)ccc1C2=O |
| 63 to 67 | CCOC(=S)CC/C(C)=C/Cc1c(O)c2c(c(C)c1OC)COC2=O |
| 142 to 144 | Cc1csc2[nH]c(=O)n(CCC(C(=O)NO)N(C)S(=O)(=O)c3ccc(Oc4ccccc4)cc3)c(=O)c12 (stereo not drawn) |
| 162 to 164 | CC(=O)SCC(C)C(=O)N(CC(=O)O)C1CCC1 (stereo not drawn) |
| 76 to 82 | CCN(CC)CCCOc1ccc(C[C@H](NC(=O)[C@@H]2CCCN2S(=O)(=O)c2ccc(C)cc2)C(=O)O)cc1 |
| 118 to 122 | CC1CCc2ncc(-c3ccccc3)c(=O)n21 (stereo not drawn) |
| 167 to 170 | Cc1nc(-n2cc(CCc3ccccc3)nn2)sc1C(=O)NCc1ccccc1 |
| 149 to 163 | COc1ccc(C(=CC(=O)N2CCOCC2)c2ccc([N+](=O)[O-])cc2)cc1OC |
| 173 to 174 | CSc1ccc(-c2coc3ccc(-c4nnc(C)o4)cc23)cc1 |
| 279 to 281 | COc1cccc2c(NCc3ccccc3C)nc(Cl)nc12 |
| 127 | CCOC(=O)N1CCC(Nc2nc3ncnc(Cl)c3n2Cc2ccc(F)cc2)CC1 |
| 180 to 187 | NS(=O)(=O)Cc1ccc(NCC(=O)N2CCC(Oc3ccc(Cl)cc3)CC2)cc1 |
| 95 to 98 | Cc1cc2c(cc1C(F)(F)F)N(Cc1ccc(C(=O)O)cc1)CCC[C@@H]2N(Cc1cc(C(F)(F)F)cc(C(F)(F)F)c1)c1nnn(C)n1 |
| 54 to 55 | CN1C(=O)CC[C@]2(C)c3ccc(-c4ccccc4C#N)cc3CC[C@@H]12 |
| 111 to 112 | CN(Cc1ccc([N+](=O)[O-])cc1)Cc1nc(-c2cc(C(C)(C)C)c(O)c(C(C)(C)C)c2)cs1 |
| 129 to 132 | O=C(O)CCC1CC(O)C(=O)N1 (stereo not drawn) |
| 187 to 189 | CC(C)(C)OC(=O)N1CCN(c2ccc(NC(=O)Nc3cc(Cl)ccc3N)cc2)CC1 |

| melting point [°C] | Compound |
| --- | --- |
| 256 to 258 | O=C(O)CNC(=O)c1nc2ccc(NCCCN3CCC(OC(c4ccccc4)c4ccccc4)CC3)nn2n1 |
| 85 to 91 | Cc1nc(-c2ccc(C(C)(C)C)cc2)sc1C(=O)N[C@H](C)[C@](O)(Cn1cncn1)c1ccc(F)cc1F |
| 49 to 51 | COc1ccc2c(c1)SCCC2=O |
| 225 | Cc1ncsc1CCNC(=O)c1cnc(N2CCN(C(=O)c3c(-c4ccccc4)n(C)c4cccnc34)CC2)cn1 |
| 102 to 115 | Cc1[nH]c(-c2ccccc2)nc1C=O |
| 119 to 120 | CNn1c(SC)nnc(-c2ccccc2)c1=O |
| 109 to 112 | CCOC(=O)C1=C(C)NC(CSC(=O)CCC2CCCCC2)=C(C(=O)OCC)C1c1cccc([N+](=O)[O-])c1 (stereo not drawn) |
| 84 | COc1ccccc1CC(=O)NCc1cccs1 |
| > 200 | Cc1nc(N)c(C#N)c(N2CCc3ccccc3CC2)n1 |
| 159 | COc1cc2c(Cl)nc(-c3ccc(Cl)cc3)nc2c(OC)c1OC |
| 111 to 113 | O=C(OC1C2OCC(O2)C(OCc2ccccc2)C1OCc1ccccc1)c1ccccc1 (stereo not drawn) |
| 131 to 132 | COc1ccc(S(=O)(=O)Nc2ccccc2C=Cc2cccnc2)cc1 |
| 266 to 267 | Nc1ccc(-c2ccc(=O)[nH]n2)cc1Br |
| 228 to 230 | COc1cccc(-n2c(N3CCNCC3)c(C(=O)N3CCN(C)CC3)c3ccccc32)c1 |
| 186 to 188 | NC(=S)c1cn(COCCO)c2ncnc(N)c12 |
| 46 to 47 | CCCCc1oc2ccccc2c1C(=O)c1ccc(OCCBr)cc1 |
| 234 to 235 | O=C(CCn1c(=O)c(=O)[nH]c2cc(C(F)(F)F)c(-n3cccc3)cc21)NCc1ccccc1 |

| Compound | melting point [°C] |
| --- | --- |
| c1ccc2c(c1)CC(CN1CCC(c3c[nH]c4cc5c(cc34)OCO5)CC1)C2 | 187 to 188 |
| CC(=Cc1cc(Br)ccc1O)[N+](=O)[O-] | 95 to 97 |
| [N-]=[N+]=C1C(=O)Nc2ccc(F)cc21 | 209 to 210 |
